For orientation: Dmax means the largest share of the target that was removed. In general, DC50 refers to the concentration at which degradation of the target reaches its halfway point.

Here are results for 13 molecules from US20250170248A1, “SMARCA DEGRADERS AND USES THEREOF” (Kymera Therapeutics, Inc., priority 2021, published 2025).

Holding throughout (type): cell-based
Assay [1] addresses T1, SMARCA2 (Homo sapiens, UniProt P51531). Put plainly: MSD SMARCA2 degradation in A549 cell line. The following applies: for Dmax: A549, A549 cells; for Dmax / DC50: 24 h; for DC50: read-out: SMARCA2 MSD A549 degradation 24 h: Average external-Abs DC50. The method in brief:
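SMARCA2 protein remaining after 24 h exposure of A549 cells (top concentration 1000 nM, 3-fold dilutions) was measured by MSD electrochemiluminescence immunoassay of cell lysates. Results are given as binned DC50 and maximal degradation (Dmax) codes.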

The target in assay [2] is T2, SMARCA4 (Homo sapiens, UniProt P51532).
T2 construct: SMARCA2/SMARCA4 protein degradation selectivity in MV4-11 cells; endogenous in cells; host or cells: MV4-11
T2 sequence (P51532 whole entry): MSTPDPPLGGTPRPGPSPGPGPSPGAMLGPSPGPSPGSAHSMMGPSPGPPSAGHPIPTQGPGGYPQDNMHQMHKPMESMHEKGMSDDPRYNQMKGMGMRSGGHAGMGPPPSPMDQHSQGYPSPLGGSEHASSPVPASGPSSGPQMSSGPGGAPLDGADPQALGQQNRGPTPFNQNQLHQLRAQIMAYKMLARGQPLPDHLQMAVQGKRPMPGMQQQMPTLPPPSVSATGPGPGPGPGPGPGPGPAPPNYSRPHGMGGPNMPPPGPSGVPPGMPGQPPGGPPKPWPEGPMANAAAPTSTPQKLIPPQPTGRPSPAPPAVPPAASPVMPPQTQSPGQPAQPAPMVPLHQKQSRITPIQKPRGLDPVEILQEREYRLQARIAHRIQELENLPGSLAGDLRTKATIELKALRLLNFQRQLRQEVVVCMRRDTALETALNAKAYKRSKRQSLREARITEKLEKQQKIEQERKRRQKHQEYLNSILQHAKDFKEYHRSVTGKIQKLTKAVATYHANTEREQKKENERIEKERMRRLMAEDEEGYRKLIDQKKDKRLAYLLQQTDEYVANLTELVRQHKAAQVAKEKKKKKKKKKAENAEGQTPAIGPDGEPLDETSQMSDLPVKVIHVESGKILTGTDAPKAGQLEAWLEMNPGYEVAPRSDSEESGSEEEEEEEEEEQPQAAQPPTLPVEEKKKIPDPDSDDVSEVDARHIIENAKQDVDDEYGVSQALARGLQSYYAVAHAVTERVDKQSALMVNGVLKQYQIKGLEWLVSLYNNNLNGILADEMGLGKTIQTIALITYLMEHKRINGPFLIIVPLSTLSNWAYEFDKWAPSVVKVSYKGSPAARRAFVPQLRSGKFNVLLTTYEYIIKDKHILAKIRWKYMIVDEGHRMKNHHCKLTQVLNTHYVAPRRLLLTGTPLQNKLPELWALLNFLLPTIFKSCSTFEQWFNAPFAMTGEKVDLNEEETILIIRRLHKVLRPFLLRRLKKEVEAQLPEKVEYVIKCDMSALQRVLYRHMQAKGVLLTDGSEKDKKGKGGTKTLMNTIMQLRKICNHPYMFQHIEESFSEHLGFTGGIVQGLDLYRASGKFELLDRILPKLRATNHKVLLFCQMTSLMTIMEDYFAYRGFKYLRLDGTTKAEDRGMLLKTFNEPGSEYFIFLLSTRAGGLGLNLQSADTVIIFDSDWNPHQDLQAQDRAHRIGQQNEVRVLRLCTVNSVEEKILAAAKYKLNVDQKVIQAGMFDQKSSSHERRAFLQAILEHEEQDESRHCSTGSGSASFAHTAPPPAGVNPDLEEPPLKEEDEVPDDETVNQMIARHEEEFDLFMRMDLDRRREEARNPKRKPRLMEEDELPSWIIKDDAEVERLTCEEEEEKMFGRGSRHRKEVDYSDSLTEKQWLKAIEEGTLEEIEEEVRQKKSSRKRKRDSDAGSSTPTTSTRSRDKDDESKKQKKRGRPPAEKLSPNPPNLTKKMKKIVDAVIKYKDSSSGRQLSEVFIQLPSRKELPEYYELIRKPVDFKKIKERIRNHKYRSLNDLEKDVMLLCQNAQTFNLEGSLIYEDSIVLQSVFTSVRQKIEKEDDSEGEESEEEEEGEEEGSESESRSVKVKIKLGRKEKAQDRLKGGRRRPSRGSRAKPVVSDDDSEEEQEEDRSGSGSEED
Put plainly: SMARCA4 Western blot degradation in MV4-11 cells. The note with it: for Dmax: MV4-11, MV4-11 cells, read-out: SMARCA4 MSD MV411 degradation 24 h: average Dmax %; for Dmax / DC50: 24 h; for DC50: read-out: SMARCA4 MSD MV411 degradation 24 h: Mean external-Abs DC50. The gist of the method: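 Fluorescent LI-COR imaging of Western blots quantified SMARCA2 and SMARCA4 protein remaining in MV4-11 cells after 24 h of compound treatment. β-actin was the loading control, and DC50, Dmax and SMARCA2/4 selectivity are given as letter-coded ranges.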

Assay [3] has as its target T1, SMARCA2. The experiment in a line: SMARCA2 Western blot degradation in MV4-11 cells. Set-up: SMARCA2/SMARCA4 protein degradation selectivity in MV4-11 cells; endogenous in cells; host or cells: MV4-11. The following applies: for Dmax: MV4-11, MV4-11 cells, read-out: SMARCA2 MSD MV411 degradation 24 h: average Dmax %; for DC50: read-out: SMARCA2 MSD MV411 degradation 24 h: Mean external-Abs DC50; for Selectivity in MV411: SMARCA2/4 selectivity. A general note: Immunoblotting shows a protein as a band on a membrane.

T1 sequence (P51531 whole entry): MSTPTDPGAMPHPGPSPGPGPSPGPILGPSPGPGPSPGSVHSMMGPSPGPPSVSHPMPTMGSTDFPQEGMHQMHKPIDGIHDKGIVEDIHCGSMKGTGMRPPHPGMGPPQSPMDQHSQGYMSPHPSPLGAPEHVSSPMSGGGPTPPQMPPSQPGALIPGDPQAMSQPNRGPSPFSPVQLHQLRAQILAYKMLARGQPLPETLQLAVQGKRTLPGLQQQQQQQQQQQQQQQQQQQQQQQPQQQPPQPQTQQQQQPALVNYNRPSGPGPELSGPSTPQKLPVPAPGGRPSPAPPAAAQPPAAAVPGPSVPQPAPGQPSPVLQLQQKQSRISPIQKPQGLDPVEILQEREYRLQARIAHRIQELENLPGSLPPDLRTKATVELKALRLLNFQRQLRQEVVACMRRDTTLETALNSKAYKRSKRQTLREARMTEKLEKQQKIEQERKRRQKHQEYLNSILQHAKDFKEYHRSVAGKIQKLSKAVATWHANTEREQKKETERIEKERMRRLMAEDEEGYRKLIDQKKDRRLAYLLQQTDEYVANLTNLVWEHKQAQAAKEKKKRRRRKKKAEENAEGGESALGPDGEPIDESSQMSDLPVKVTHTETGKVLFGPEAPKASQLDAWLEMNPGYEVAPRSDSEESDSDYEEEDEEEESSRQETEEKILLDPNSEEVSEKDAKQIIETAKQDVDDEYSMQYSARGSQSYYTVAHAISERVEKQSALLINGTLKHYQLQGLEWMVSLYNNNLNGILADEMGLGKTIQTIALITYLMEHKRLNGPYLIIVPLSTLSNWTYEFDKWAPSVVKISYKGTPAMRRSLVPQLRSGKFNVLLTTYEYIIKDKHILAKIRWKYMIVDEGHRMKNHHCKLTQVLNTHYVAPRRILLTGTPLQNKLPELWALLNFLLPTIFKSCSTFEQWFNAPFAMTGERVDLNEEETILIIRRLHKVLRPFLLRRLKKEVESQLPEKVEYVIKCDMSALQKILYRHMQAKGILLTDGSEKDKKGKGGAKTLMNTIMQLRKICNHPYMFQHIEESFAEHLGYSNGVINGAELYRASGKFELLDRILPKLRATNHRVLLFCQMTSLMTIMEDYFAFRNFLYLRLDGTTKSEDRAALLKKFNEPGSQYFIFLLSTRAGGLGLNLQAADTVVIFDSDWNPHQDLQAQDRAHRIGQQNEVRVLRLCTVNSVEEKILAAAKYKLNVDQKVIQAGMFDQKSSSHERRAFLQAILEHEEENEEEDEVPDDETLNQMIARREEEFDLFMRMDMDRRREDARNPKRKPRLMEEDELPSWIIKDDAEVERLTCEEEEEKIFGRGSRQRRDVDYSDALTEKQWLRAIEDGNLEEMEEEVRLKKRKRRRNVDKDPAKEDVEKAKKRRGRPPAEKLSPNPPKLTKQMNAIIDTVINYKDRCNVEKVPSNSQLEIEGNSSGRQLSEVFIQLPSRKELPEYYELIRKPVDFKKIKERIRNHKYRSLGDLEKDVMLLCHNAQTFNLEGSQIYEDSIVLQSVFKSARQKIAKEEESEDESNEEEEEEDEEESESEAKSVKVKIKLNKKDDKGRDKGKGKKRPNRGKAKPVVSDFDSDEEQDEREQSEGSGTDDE

In the case of `COc1cc(C(C(=O)N2C[C@H](O)C[C@H]2C(=O)NCC#Cc2ccccc2OCCCCN2CCC(c3cnc(N4CCN5c6cc(-c7ccccc7O)nnc6NC[C@H]5C4)nc3)CC2)C(C)C)on1` (stereo partly shown) [I-74], the Dmax in assay [1], in assay [2] and in assay [3] (24 h) was above 90% in each case. Further, the DC50 in assay [1] (A549 cells) was 0.01 to 0.05 µM; in assay [2] (MV4-11 cells), 0.001 to 0.01 µM; in assay [3] (MV4-11 cells, 24 h) it was below 0.001 µM. Further, in assay [3] (MV4-11 cells), the “Selectivity in MV411” value is “C (C (10-100 fold))”.
In the case of `C#Cc1ccc(CNC(=O)[C@@H]2C[C@@H](O)CN2C(=O)[C@@H](NC(=O)[C@H]2CCC3(CC2)C[C@H](N2CCN(c4cnc(N5CCN6c7cc(-c8ccccc8O)nnc7NC[C@H]6C5)nc4)CC2)C3)C(C)(C)C)cc1` (single isomer, unassigned) [I-122], the figures for the Dmax in assay [1], in assay [2] and in assay [3] (24 h) were above 90%, 50 to 70% and 70 to 90%, respectively. For the same molecule, the DC50 in assay [1] (A549 cells) was in the range of 0.01 to 0.05 µM; in assay [2] (MV4-11 cells), 0.01 to 0.1 µM; in assay [3] (MV4-11 cells, 24 h), 0.001 to 0.01 µM. For the same molecule, the “Selectivity in MV411” value in assay [3] (MV4-11 cells) is reported as “C (C (10-100 fold))”.
For the molecule `C#Cc1ccc(CNC(=O)[C@@H]2C[C@@H](O)CN2C(=O)[C@@H](NC(=O)N2CC3(CC(N4C[C@H]5CN(c6cnc(N7CCc8[nH]c9nnc(-c%10ccccc%10O)cc9c8[C@@H]7C)nc6)C[C@H]5C4)C3)C2)C(C)(C)C)cc1` [I-172], the values for the Dmax in assay [1], in assay [2] and in assay [3] (24 h) were above 90%, 70 to 90% and 50 to 70%, respectively. Besides, the DC50 was above 0.1 µM in assay [1] (A549 cells); above 0.1 µM in assay [2] (MV4-11 cells); 0.01 to 0.1 µM in assay [3] (MV4-11 cells, 24 h). In addition, the “Selectivity in MV411” value in assay [3] (MV4-11 cells) is listed as “C (C (10-100 fold))”.
For `C#Cc1ccc(CNC(=O)[C@@H]2C[C@@H](O)CN2C(=O)[C@@H](NC(=O)[C@H]2CCC3(CC2)C[C@H](N2CCN(c4cnc(N5CCN6c7cc(-c8ccccc8O)nnc7NC[C@H]6C5)nc4)CC2)C3)C(C)(C)CCO)cc1` (single isomer, unassigned) [I-299], in assay [1] (A549 cells), the “SMARCA2 MSD A549 degradation 24 h: Average Dmax %” value is on record as “A (A (>90% degradation))” and the DC50 was below 0.01 µM. Besides, in assay [2] (MV4-11 cells), the “SMARCA4 MSD MV411 degradation 24 h: average Dmax %” value is “C (C (50-70% degradation))” and the DC50 was above 0.1 µM. For the same molecule, in assay [3] (MV4-11 cells, 24 h), the “SMARCA2 MSD MV411 degradation 24 h: average Dmax %” value is given as “B (B (>70-90% degradation))” and the DC50 lay in the range of 0.001 to 0.01 µM. Further, the “Selectivity in MV411” value in assay [3] (MV4-11 cells) is “C (C (10-100 fold))”.
In the case of `C#Cc1ccc(CNC(=O)[C@@H]2C[C@@H](O)CN2C(=O)[C@@H](NC(=O)N2CC3(CC(N4CCC(N5CCC(N6CCN7c8cc(-c9ccccc9O)nnc8NC[C@H]7C6)CC5)CC4)C3)C2)C(C)(C)C)cc1` [I-215], the Dmax in assay [1] was above 90%; in assay [2], 70 to 90%; in assay [3] (24 h) it was above 90%. Moreover, the DC50 in assay [1] (A549 cells) lay in the range of 0.05 to 0.1 µM; in assay [2] (MV4-11 cells) it was 0.01 to 0.1 µM; in assay [3] (MV4-11 cells, 24 h), 0.001 to 0.01 µM. Further, the “Selectivity in MV411” value in assay [3] (MV4-11 cells) is “C (C (10-100 fold))”.
For the molecule `C#Cc1ccc(CNC(=O)[C@@H]2C[C@@H](O)CN2C(=O)[C@@H](NC(=O)N2CCCC(N3CCC(c4cnc(N5CCN6c7cc(-c8ccccc8O)nnc7NC[C@H]6C5)nc4)CC3)C2)C(C)(C)C)cc1` (mixture of isomers) [I-245], the values for the Dmax in assay [1], in assay [2] and in assay [3] (24 h) were 70 to 90%, below 50% and 50 to 70%, respectively. Further, the DC50 was above 0.1 µM in assay [1] (A549 cells); above 0.1 µM in assay [2] (MV4-11 cells); 0.01 to 0.1 µM in assay [3] (MV4-11 cells, 24 h). Besides, the “Selectivity in MV411” value in assay [3] (MV4-11 cells) is “B (B (>100-500 fold))”.
Turning to `Cc1ncsc1-c1ccc(CNC(=O)[C@@H]2C[C@@H](O)CN2C(=O)[C@@H](NC(=O)C2CC3(C2)CC(N2CCC(N4CCC(N5CCN6c7cc(-c8ccccc8O)nnc7NC[C@H]6C5)CC4)CC2)C3)C(C)(C)C)cc1` (stereo partly shown) [I-75], the greatest degradation seen (Dmax) in assay [1] is above 90%; in assay [2] it was below 50%; in assay [3] (24 h), 70 to 90%. For the same molecule, the DC50 in assay [1] (A549 cells) is above 0.1 µM; in assay [2] (MV4-11 cells) it was above 0.1 µM; in assay [3] (MV4-11 cells, 24 h) it was 0.001 to 0.01 µM. The “Selectivity in MV411” value in assay [3] (MV4-11 cells) is “A (A (>500 fold))”.
Turning to `C#Cc1ccc(CNC(=O)[C@@H]2C[C@@H](O)CN2C(=O)[C@@H](NC(=O)N2CC3(CC(N4CCC(c5cnc(N6CCc7[nH]c8nnc(-c9ccccc9O)cc8c7[C@H]6C)nc5)CC4)C3)C2)C(C)(C)CCN2CCN[C@@H](C(=O)O)C2)cc1` [I-342], the Dmax in assay [1], in assay [2] and in assay [3] (24 h) was below 50% in each case. Also, the DC50 was above 0.1 µM in assay [1] (A549 cells); above 0.1 µM in assay [2] (MV4-11 cells); above 0.1 µM in assay [3] (MV4-11 cells, 24 h). Further, in assay [3] (MV4-11 cells), the “Selectivity in MV411” value is recorded as “C (C (10-100 fold))”.
Consider `C#Cc1cnc(CNC(=O)[C@@H]2C[C@@H](O)CN2C(=O)[C@@H](NC(=O)[C@H]2CC3(C2)C[C@H](N2CCC(N4CCC(N5CCN6c7cc(-c8ccccc8O)nnc7NC[C@H]6C5)CC4)CC2)C3)C(C)(C)C)c(OC)c1` (single isomer, unassigned) [I-330], for which the results for the Dmax in assay [1], in assay [2] and in assay [3] (24 h) were 50 to 70%, below 50% and 50 to 70%, respectively. The DC50 in assay [1] (A549 cells) is above 0.1 µM; in assay [2] (MV4-11 cells), above 0.1 µM; in assay [3] (MV4-11 cells, 24 h) it was above 0.1 µM. The “Selectivity in MV411” value in assay [3] (MV4-11 cells) is recorded as “C (C (10-100 fold))”.
Turning to `C#Cc1ccc(CNC(=O)[C@@H]2C[C@@H](O)CN2C(=O)[C@@H](NC(=O)[C@H]2CCC3(CC2)C[C@H](N2CCC(N(C)CCN4CCN5c6cc(-c7ccccc7O)nnc6NC[C@H]5C4)CC2)C3)C(C)(C)C)cc1` (single isomer, unassigned) [I-246], the Dmax in assay [1] was above 90%; in assay [2] it was 50 to 70%; in assay [3] (24 h) it was 70 to 90%. Moreover, the DC50 in assay [1] (A549 cells) is above 0.1 µM; in assay [2] (MV4-11 cells) it was above 0.1 µM; in assay [3] (MV4-11 cells, 24 h), 0.01 to 0.1 µM. The “Selectivity in MV411” value in assay [3] (MV4-11 cells) is recorded as “C (C (10-100 fold))”.
Consider `Cc1ncsc1-c1ccc(CNC(=O)[C@@H]2C[C@@H](O)CN2C(=O)[C@@H](NC(=O)[C@H]2CC3(C2)C[C@H](N2CCC(N4CCC(c5ccc6[nH]c7nnc(-c8ccccc8O)cc7c6c5)CC4)CC2)C3)C(C)(C)C)cc1` (single isomer, unassigned) [I-28], for which the figures for the Dmax in assay [1], in assay [2] and in assay [3] (24 h) were 70 to 90%, below 50% and 50 to 70%, respectively. For the same molecule, the half-maximal degradation concentration (DC50) in assay [1] (A549 cells) is 0.05 to 0.1 µM; in assay [2] (MV4-11 cells), above 0.1 µM; in assay [3] (MV4-11 cells, 24 h), 0.01 to 0.1 µM. Further, the “Selectivity in MV411” value in assay [3] (MV4-11 cells) is listed as “C (C (10-100 fold))”.
With `Cc1ncsc1-c1ccc(CNC(=O)[C@@H]2C[C@@H](O)CN2C(=O)C(c2cc(OC[C@H]3CC[C@@H](N4CCC(c5cnc(N6CCc7[nH]c8nnc(-c9ccccc9O)cc8c7[C@@H]6C)nc5)CC4)CC3)no2)C(C)C)cc1` (single isomer, unassigned) [I-16], the Dmax in assay [1] is 70 to 90%; in assay [2] it was 70 to 90%; in assay [3] (24 h), above 90%. For the same molecule, the DC50 in assay [1] (A549 cells) was in the range of 0.05 to 0.1 µM; in assay [2] (MV4-11 cells), 0.01 to 0.1 µM; in assay [3] (MV4-11 cells, 24 h), 0.001 to 0.01 µM. Moreover, in assay [3] (MV4-11 cells), the “Selectivity in MV411” value is recorded as “D (D (<10 fold))”.
For `C#Cc1ccc(CNC(=O)[C@@H]2C[C@@H](O)CN2C(=O)[C@@H](NC(=O)N2CC3(CC(N4CCC(c5cnc(N6CCc7[nH]c8nnc(-c9ccccc9O)cc8c7[C@H]6C)nc5)CC4)C3)C2)C(C)(C)C)c(OCCCN(C)C)c1` [I-127], the figures for the Dmax in assay [1], in assay [2] and in assay [3] (24 h) were above 90%, 70 to 90% and 70 to 90%, respectively. The DC50 was above 0.1 µM in assay [1] (A549 cells); above 0.1 µM in assay [2] (MV4-11 cells); 0.01 to 0.1 µM in assay [3] (MV4-11 cells, 24 h). Moreover, the “Selectivity in MV411” value in assay [3] (MV4-11 cells) is “D (D (<10 fold))”.
